Data: US6914045B2, “Glycopeptide antibiotics” (Wyeth Holdings Corporation, priority 2001, dated 2005)
In brackets after ≈: the same amount, converted by molar mass.

What was measured:
Experiment in all cases: in vitro antibacterial evaluation, MIC by broth dilution
Type in all cases: cell-based
[1] = test system: Enterococcus sp.; conditions: broth dilution, 18 hours at 35° C.; for MIC Enterococcus faecalis (GC 2242): strain GC 2242; for MIC Enterococcus faecalis (GC 4552): strain GC 4552
Procedure, shortened: (§1)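 Step 1: dilute antibiotic across 64-0.06 μg/mL in Muller-Hinton II […]. Step 2: inoculate at 5×10^5 CFU/mL.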

[2] = test system: Escherichia coli; conditions: 18 hours at 35° C.
Procedure, shortened: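 MIC = lowest antibiotic concentration preventing visible growth; inoculum 5×10^5 CFU/mL; drug range 64-0.06 μg/mL; Muller-Hinton II […]; NCCLS M7-A2 guidance.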

[3] = test system: Staphylococcus sp.; conditions: broth dilution, 18 hours at 35° C.
Procedure, shortened: as §1

[4] = test system: Streptococcus sp.; conditions: broth dilution, 18 hours at 35° C.; for MIC Streptococcus agalactiae (GC 4564): strain GC 4564; for MIC Streptococcus pyogenes (ID-3187): strain ID-3187
Procedure, shortened: as §1

[5] = Enterococcus faecalis (ATCC 29212)
[6] = Enterococcus faecalis (GC 4553)
[7] = Enterococcus faecalis (GC 4554)

CC(C)CCC(=O)OC1C(OC2C(CO)OC(Oc3ccc(CC4NC(=O)C(C(C)c5ccccc5)NC(=O)CNC(=O)C(CO)NC(=O)C(C(O)C5CNC(=N)N5C5OC(CO)C(O)C(O)C5O)NC(=O)C(C(O)C5CNC(=N)N5)NC4=O)cc3)C(O)C2O)OC(CO)C(O)C1O (stereo not drawn) [Example 270a, Cyclo[glycyl-β-methylphenylalanyl-O-[4-O-[2-O-(4-methylventanovl)hexopyranosyl]-hexopyranosyl]tyrosyl-3-(2-iminoimidazolidin-4-yl)seryl-3-(3-hexopyranosyl-2-iminoimidazolidin-4-yl)serylseryl]]
MIC Enterococcus avium (GC 4558) ([1]; Enterococcus avium (GC 4558)): 16 µg/mL (≈ 11.5 µM) | MIC Enterococcus faecalis (ATCC 29212) [1, 5]: 16 µg/mL (≈ 11.5 µM) | MIC Enterococcus faecalis (GC 4553) [1, 6]: 16 µg/mL (≈ 11.5 µM) | MIC Enterococcus faecalis (GC 4554) [1, 7]: 32 µg/mL (≈ 23 µM) | MIC Enterococcus faecium (GC 2243) ([1]; Enterococcus faecium (GC 2243)): 16 µg/mL (≈ 11.5 µM) | MIC Enterococcus faecium (GC 4556) ([1]; Enterococcus faecium (GC 4556)): 16 µg/mL (≈ 11.5 µM) | MIC Enterococcus faecium (GC 4557) ([1]; Enterococcus faecium (GC 4557)): 4 µg/mL (≈ 2.87 µM) | MIC Enterococcus faecalis (ATCC 29212) ([1]; strain ATCC 29212): 16 µg/mL (≈ 11.5 µM) | MIC Enterococcus faecalis (GC 2242) [1]: 16 µg/mL (≈ 11.5 µM) | MIC Enterococcus faecium (GC 2243) ([1]; strain GC 2243): 16 µg/mL (≈ 11.5 µM) | MIC Enterococcus faecalis (GC 4552) [1]: 16 µg/mL (≈ 11.5 µM) | MIC Enterococcus faecalis (GC 4553) ([1]; strain GC 4553): 16 µg/mL (≈ 11.5 µM) | MIC Enterococcus faecalis (GC 4554) ([1]; strain GC 4554): 32 µg/mL (≈ 23 µM) | MIC Enterococcus faecium (GC 4556) ([1]; strain GC 4556): 16 µg/mL (≈ 11.5 µM) | MIC Enterococcus faecium (GC 4557) ([1]; strain GC 4557): 4 µg/mL (≈ 2.87 µM) | MIC Enterococcus avium (GC 4558) ([1]; strain GC 4558): 16 µg/mL (≈ 11.5 µM) | MIC Escherichia coli (ATCC 25922) [2]: >64 µg/mL | MIC Escherichia coli (GC 4559) [2]: >64 µg/mL | MIC Escherichia coli (GC 4560) [2]: 2 µg/mL (≈ 1.44 µM) | MIC Coagulase Negative Staphylococcus (GC 4547) [3]: 2 µg/mL (≈ 1.44 µM) | MIC Coagulase Negative Staphylococcus (GC 4548) [3]: 2 µg/mL (≈ 1.44 µM) | MIC Coagulase Negative Staphylococcus (GC 4549) [3]: 2 µg/mL (≈ 1.44 µM) | MIC Coagulase Negative Staphylococcus (GC 4551) [3]: 4 µg/mL (≈ 2.87 µM) | MIC Staphylococcus aureus (ATCC 29213) [3]: 4 µg/mL (≈ 2.87 µM) | MIC Staphylococcus aureus (GC 1131) [3]: 4 µg/mL (≈ 2.87 µM) | MIC Staphylococcus aureus (GC 4541) [3]: 4 µg/mL (≈ 2.87 µM) | MIC Staphylococcus aureus (GC 4542) [3]: 4 µg/mL (≈ 2.87 µM) | MIC Staphylococcus aureus (GC 4544) [3]: 4 µg/mL (≈ 2.87 µM) | MIC Staphylococcus aureus (GC 4545) [3]: 4 µg/mL (≈ 2.87 µM) | MIC Staphylococcus aureus-SMITH (GC 4543) [3]: 4 µg/mL (≈ 2.87 µM) | MIC Staphylococcus haemolyticus (GC 4546) [3]: 2 µg/mL (≈ 1.44 µM) | MIC Staphylococcus aureus (ATCC 29213) ([3]; strain ATCC 29213): 4 µg/mL (≈ 2.87 µM) | MIC Staphylococcus aureus (GC 1131) ([3]; strain GC 1131): 4 µg/mL (≈ 2.87 µM) | MIC Staphylococcus aureus (GC 4541) ([3]; strain GC 4541): 4 µg/mL (≈ 2.87 µM) | MIC Staphylococcus aureus (GC 4542) ([3]; strain GC 4542): 4 µg/mL (≈ 2.87 µM) | MIC Staphylococcus aureus (GC 4544) ([3]; strain GC 4544): 4 µg/mL (≈ 2.87 µM) | MIC Staphylococcus aureus (GC 4545) ([3]; strain GC 4545): 4 µg/mL (≈ 2.87 µM) | MIC Staphylococcus haemolyticus (GC 4546) ([3]; strain GC 4546): 2 µg/mL (≈ 1.44 µM) | MIC Coagulase Negative Staphylococcus (GC 4547) ([3]; strain GC 4547): 2 µg/mL (≈ 1.44 µM) | MIC Coagulase Negative Staphylococcus (GC 4548) ([3]; strain GC 4548): 2 µg/mL (≈ 1.44 µM) | MIC Coagulase Negative Staphylococcus (GC 4549) ([3]; strain GC 4549): 2 µg/mL (≈ 1.44 µM) | MIC Coagulase Negative Staphylococcus (GC 4551) ([3]; strain GC 4551): 4 µg/mL (≈ 2.87 µM) | MIC Staphylococcus aureus-SMITH (GC 4543) ([3]; strain SMITH GC 4543): 4 µg/mL (≈ 2.87 µM) | MIC Streptococcus agalactiae (GC 4564) [4]: 1 µg/mL (≈ 0.718 µM) | MIC Streptococcus pyogenes (ID-3187) [4]: 1 µg/mL (≈ 0.718 µM)

CC(=O)OCC1OC(OC2C(CO)OC(Oc3ccc(CC4NC(=O)C(C(C)c5ccccc5)NC(=O)CNC(=O)C(CO)NC(=O)C(C(O)C5CNC(=N)N5C5OC(CO)C(O)C(O)C5O)NC(=O)C(C(O)C5CNC(=N)N5)NC4=O)cc3)C(O)C2O)C(O)C(OC(=O)CCC(C)C)C1O (stereo not drawn) [Example 270b, Cyclo[glycyl-β-methylphenylalanyl-O-[4-O-[6-O-acetyl-3-O-(4-methylpentanoyl)hexopyranosyl]hexopyranosyl]tyrosyl-3-(2-iminoimidazolidin-4-yl)seryl-3-(3-hexopyranosyl-2-iminoimidazolidin-4-yl)serylseryl]]
MIC Enterococcus avium (GC 4558) ([1]; Enterococcus avium (GC 4558)): 32 µg/mL (≈ 22.3 µM) | MIC Enterococcus faecalis (ATCC 29212) [1, 5]: 32 µg/mL (≈ 22.3 µM) | MIC Enterococcus faecalis (GC 4553) [1, 6]: 32 µg/mL (≈ 22.3 µM) | MIC Enterococcus faecalis (GC 4554) [1, 7]: 32 µg/mL (≈ 22.3 µM) | MIC Enterococcus faecium (GC 2243) ([1]; Enterococcus faecium (GC 2243)): 32 µg/mL (≈ 22.3 µM) | MIC Enterococcus faecium (GC 4556) ([1]; Enterococcus faecium (GC 4556)): 32 µg/mL (≈ 22.3 µM) | MIC Enterococcus faecium (GC 4557) ([1]; Enterococcus faecium (GC 4557)): 8 µg/mL (≈ 5.57 µM) | MIC Enterococcus faecalis (ATCC 29212) ([1]; strain ATCC 29212): 32 µg/mL (≈ 22.3 µM) | MIC Enterococcus faecalis (GC 2242) [1]: 16 µg/mL (≈ 11.1 µM) | MIC Enterococcus faecium (GC 2243) ([1]; strain GC 2243): 32 µg/mL (≈ 22.3 µM) | MIC Enterococcus faecalis (GC 4552) [1]: 32 µg/mL (≈ 22.3 µM) | MIC Enterococcus faecalis (GC 4553) ([1]; strain GC 4553): 32 µg/mL (≈ 22.3 µM) | MIC Enterococcus faecalis (GC 4554) ([1]; strain GC 4554): 32 µg/mL (≈ 22.3 µM) | MIC Enterococcus faecium (GC 4556) ([1]; strain GC 4556): 32 µg/mL (≈ 22.3 µM) | MIC Enterococcus faecium (GC 4557) ([1]; strain GC 4557): 8 µg/mL (≈ 5.57 µM) | MIC Enterococcus avium (GC 4558) ([1]; strain GC 4558): 32 µg/mL (≈ 22.3 µM) | MIC Escherichia coli (ATCC 25922) [2]: >64 µg/mL | MIC Escherichia coli (GC 4559) [2]: >64 µg/mL | MIC Escherichia coli (GC 4560) [2]: 4 µg/mL (≈ 2.79 µM) | MIC Coagulase Negative Staphylococcus (GC 4547) [3]: 4 µg/mL (≈ 2.79 µM) | MIC Coagulase Negative Staphylococcus (GC 4548) [3]: 4 µg/mL (≈ 2.79 µM) | MIC Coagulase Negative Staphylococcus (GC 4549) [3]: 4 µg/mL (≈ 2.79 µM) | MIC Coagulase Negative Staphylococcus (GC 4551) [3]: 4 µg/mL (≈ 2.79 µM) | MIC Staphylococcus aureus (ATCC 29213) [3]: 8 µg/mL (≈ 5.57 µM) | MIC Staphylococcus aureus (GC 1131) [3]: 8 µg/mL (≈ 5.57 µM) | MIC Staphylococcus aureus (GC 4541) [3]: 8 µg/mL (≈ 5.57 µM) | MIC Staphylococcus aureus (GC 4542) [3]: 8 µg/mL (≈ 5.57 µM) | MIC Staphylococcus aureus (GC 4544) [3]: 8 µg/mL (≈ 5.57 µM) | MIC Staphylococcus aureus (GC 4545) [3]: 4 µg/mL (≈ 2.79 µM) | MIC Staphylococcus aureus-SMITH (GC 4543) [3]: 4 µg/mL (≈ 2.79 µM) | MIC Staphylococcus haemolyticus (GC 4546) [3]: 4 µg/mL (≈ 2.79 µM) | MIC Staphylococcus aureus (ATCC 29213) ([3]; strain ATCC 29213): 8 µg/mL (≈ 5.57 µM) | MIC Staphylococcus aureus (GC 1131) ([3]; strain GC 1131): 8 µg/mL (≈ 5.57 µM) | MIC Staphylococcus aureus (GC 4541) ([3]; strain GC 4541): 8 µg/mL (≈ 5.57 µM) | MIC Staphylococcus aureus (GC 4542) ([3]; strain GC 4542): 8 µg/mL (≈ 5.57 µM) | MIC Staphylococcus aureus (GC 4544) ([3]; strain GC 4544): 8 µg/mL (≈ 5.57 µM) | MIC Staphylococcus aureus (GC 4545) ([3]; strain GC 4545): 4 µg/mL (≈ 2.79 µM) | MIC Staphylococcus haemolyticus (GC 4546) ([3]; strain GC 4546): 4 µg/mL (≈ 2.79 µM) | MIC Coagulase Negative Staphylococcus (GC 4547) ([3]; strain GC 4547): 4 µg/mL (≈ 2.79 µM) | MIC Coagulase Negative Staphylococcus (GC 4548) ([3]; strain GC 4548): 4 µg/mL (≈ 2.79 µM) | MIC Coagulase Negative Staphylococcus (GC 4549) ([3]; strain GC 4549): 4 µg/mL (≈ 2.79 µM) | MIC Coagulase Negative Staphylococcus (GC 4551) ([3]; strain GC 4551): 4 µg/mL (≈ 2.79 µM) | MIC Staphylococcus aureus-SMITH (GC 4543) ([3]; strain SMITH GC 4543): 4 µg/mL (≈ 2.79 µM) | MIC Streptococcus agalactiae (GC 4564) [4]: 2 µg/mL (≈ 1.39 µM) | MIC Streptococcus pyogenes (ID-3187) [4]: 2 µg/mL (≈ 1.39 µM)
